pIC50: −log10 of the molar value. Where a name gives a salt, the structure may show the parent alone.
Legend:
JAK2 tyrosine kinase = target: T1, JAK2 tyrosine kinase (Homo sapiens, UniProt O60674); assay: Test 1: inhibitory activity to JAK2 tyrosine kinase (ELISA); format: biochemical; details: 25 μM ATP in substrate solution, 30° C. for 1 hour, n=2
T1 construct: purchased Carnabioscience Co
Outline: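 Human JAK2 (diluted to 0.75 nM before addition) phosphorylated a biotinylated peptide on streptavidin plates for 1 h at 30 °C. The substrate mix held 625 nM peptide, 25 μM ATP and 25 mM MgCl2 in 15 mM Tris pH 7.5, 0.01% Tween-20 and 1 mM DTT. Phosphotyrosine was detected by HRP antibody/TMB at 450 nm, and IC50 was obtained by non-linear regression; duplicates were run.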

JAK3 tyrosine kinase = target: T2, JAK3 tyrosine kinase (Homo sapiens, UniProt P52333); assay: Test 1: inhibitory activity to JAK3 tyrosine kinase (ELISA); format: biochemical; details: 25 μM ATP in substrate solution, 30° C. for 1 hour, n=2
T2 construct: purchased Carnabioscience Co
T2 sequence (P52333 1-1124): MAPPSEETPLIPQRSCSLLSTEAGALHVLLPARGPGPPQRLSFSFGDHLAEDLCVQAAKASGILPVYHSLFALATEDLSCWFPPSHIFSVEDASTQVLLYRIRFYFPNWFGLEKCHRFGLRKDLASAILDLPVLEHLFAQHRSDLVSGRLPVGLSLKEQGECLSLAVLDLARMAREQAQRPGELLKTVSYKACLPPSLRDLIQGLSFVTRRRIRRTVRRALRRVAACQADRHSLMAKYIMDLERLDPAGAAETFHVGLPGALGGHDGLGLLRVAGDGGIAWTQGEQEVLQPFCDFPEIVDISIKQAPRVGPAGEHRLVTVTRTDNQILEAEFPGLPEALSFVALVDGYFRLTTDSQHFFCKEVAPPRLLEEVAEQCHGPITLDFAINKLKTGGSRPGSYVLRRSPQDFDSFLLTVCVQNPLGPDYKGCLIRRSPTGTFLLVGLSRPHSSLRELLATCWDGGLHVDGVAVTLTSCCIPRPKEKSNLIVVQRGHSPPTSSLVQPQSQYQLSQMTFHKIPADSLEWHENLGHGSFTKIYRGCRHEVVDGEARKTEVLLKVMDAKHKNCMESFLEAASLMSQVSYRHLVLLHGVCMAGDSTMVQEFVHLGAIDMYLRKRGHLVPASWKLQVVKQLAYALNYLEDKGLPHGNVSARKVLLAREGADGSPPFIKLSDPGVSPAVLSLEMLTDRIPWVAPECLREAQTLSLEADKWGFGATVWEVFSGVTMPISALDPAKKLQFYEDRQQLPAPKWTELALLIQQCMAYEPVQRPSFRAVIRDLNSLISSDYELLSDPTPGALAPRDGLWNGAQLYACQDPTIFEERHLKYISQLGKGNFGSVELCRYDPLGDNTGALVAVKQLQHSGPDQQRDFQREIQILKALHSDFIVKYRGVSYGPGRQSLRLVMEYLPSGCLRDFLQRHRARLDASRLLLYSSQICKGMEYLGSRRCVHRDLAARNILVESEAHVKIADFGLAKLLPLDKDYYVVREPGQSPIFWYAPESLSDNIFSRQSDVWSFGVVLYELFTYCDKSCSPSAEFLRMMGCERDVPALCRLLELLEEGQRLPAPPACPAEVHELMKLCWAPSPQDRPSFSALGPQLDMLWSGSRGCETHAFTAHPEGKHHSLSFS
Outline: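 ELISA of JAK3 kinase activity with absorbance read at 450 nm. Compounds were tested from DMSO dilution series at 100-fold the measurement concentrations (1000–0.01 μM), diluted up to 20 times in assay buffer, against a DMSO negative control. IC50 was estimated by non-linear regression of absorbance.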

T1 sequence (O60674 whole entry): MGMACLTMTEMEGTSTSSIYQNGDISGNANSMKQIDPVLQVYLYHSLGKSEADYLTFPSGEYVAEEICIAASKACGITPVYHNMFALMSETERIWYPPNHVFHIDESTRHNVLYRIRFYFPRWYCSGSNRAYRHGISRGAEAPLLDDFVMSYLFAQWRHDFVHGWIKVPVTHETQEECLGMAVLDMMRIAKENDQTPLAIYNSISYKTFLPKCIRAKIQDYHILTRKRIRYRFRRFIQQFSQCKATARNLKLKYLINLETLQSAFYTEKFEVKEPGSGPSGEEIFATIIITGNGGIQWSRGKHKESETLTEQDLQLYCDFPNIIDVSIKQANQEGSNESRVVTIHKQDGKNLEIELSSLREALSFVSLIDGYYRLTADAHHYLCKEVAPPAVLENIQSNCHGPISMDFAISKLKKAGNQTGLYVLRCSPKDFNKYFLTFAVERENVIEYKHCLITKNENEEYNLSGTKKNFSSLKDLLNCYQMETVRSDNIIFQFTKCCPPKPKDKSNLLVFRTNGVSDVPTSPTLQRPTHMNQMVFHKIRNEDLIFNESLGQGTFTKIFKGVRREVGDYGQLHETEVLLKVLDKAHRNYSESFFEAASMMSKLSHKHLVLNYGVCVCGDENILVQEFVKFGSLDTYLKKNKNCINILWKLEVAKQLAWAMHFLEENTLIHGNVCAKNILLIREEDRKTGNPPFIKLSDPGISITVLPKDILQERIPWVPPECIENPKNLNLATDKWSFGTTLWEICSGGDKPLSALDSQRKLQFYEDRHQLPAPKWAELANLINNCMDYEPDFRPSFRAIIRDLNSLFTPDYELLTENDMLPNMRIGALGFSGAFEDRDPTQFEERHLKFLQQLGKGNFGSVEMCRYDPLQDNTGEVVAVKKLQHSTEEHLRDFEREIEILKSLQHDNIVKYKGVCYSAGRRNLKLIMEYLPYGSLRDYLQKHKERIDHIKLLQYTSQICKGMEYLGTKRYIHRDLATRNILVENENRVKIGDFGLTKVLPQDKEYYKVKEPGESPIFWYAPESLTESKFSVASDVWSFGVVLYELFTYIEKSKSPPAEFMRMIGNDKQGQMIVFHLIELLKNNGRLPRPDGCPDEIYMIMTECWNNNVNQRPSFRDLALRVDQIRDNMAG

| Compound | pIC50 (JAK2 tyrosine kinase) | pIC50 (JAK3 tyrosine kinase) |
| --- | --- | --- |
| CC(C)n1cc(-c2cc(Nc3cnccn3)nc(N[C@@H](C)c3ccc(F)cc3)c2)cn1 [Example 37, (S)—N^2-[1-(4-Fluorophenyl)ethyl]-4-(1-isopropyl-1H-pyrazol-4-yl)-N^6-(pyrazin-2-yl)pyridine-2,6-diamine hydrochloride] | 8.49 | 6.89 |
| C[C@H](Nc1nc(Nc2cnccn2)cc(N2CC(C(=O)NCC3CC3)C2)n1)c1ccc(F)cc1 [Example 198, (S)—N-(Cyclopropylmethyl)-1-{2-[1-(4-fluorophenyl)ethylamino]-6-(pyrazin-2-ylamino)pyrimidin-4-yl}azetidine-3-carboxamide] | 8.80 | 7.22 |
| Cc1cc(Nc2cnccn2)nc(N[C@@H](C)c2ccc(F)cc2)c1 [Example 121, (S)—N^2-[1-(4-Fluorophenyl)ethyl]-4-methyl-N^6-(pyrazin-2-yl)pyridine-2,6-diamine hydrochloride] | 8.57 | 6.77 |
| COCCn1cc(-c2cc(Nc3cnccn3)nc(N[C@@H](C)c3ccc(F)cc3)c2)cn1 [Example 217, (S)—N^2-[1-(4-Fluorophenyl)ethyl]-4-[1-(2-methoxyethyl)-1H-pyrazol-4-yl]-N^6-(pyrazin-2-yl)pyridine-2,6-diamine] | 8.82 | 7.44 |
| CCn1cc(-c2cc(Nc3cnccn3)nc(N[C@@H](C)c3ccc(F)cc3)c2)cn1 [Example 46, (S)-4-(1-Ethyl-1H-pyrazol-4-yl)-N^2-[1-(4-fluorophenyl)ethyl]-N^6-(pyrazin-2-yl)pyridine-2,6-diamine] | 8.43 | 7.03 |
| CC(=O)c1cc(Nc2cnccn2)nc(N[C@@H](C)c2ccc(F)cc2)c1 [Example 182, (S)-1-{2-[1-(4-Fluorophenyl)ethylamino]-6-(pyrazin-2-ylamino)pyridin-4-yl}ethanone hydrochloride] | 8.19 | 6.36 |
| C[C@H](Nc1cc(C(=O)NCCCO)cc(Nc2cnccn2)n1)c1ccc(F)cc1 [Example 172, (S)-2-[1-(4-Fluorophenyl)ethylamino]-N-(3-hydroxypropyl)-6-(pyrazin-2-ylamino)isonicotinamide] | 9.07 | 6.82 |
| C[C@H](Nc1nc(Nc2cnccn2)cc(OCCO)n1)c1ccc(F)cc1 [Example 95, (S)-2-{2-[1-(4-Fluorophenyl)ethylamino]-6-(pyrazin-2-ylamino)pyrimidin-4-yloxy}ethanol hydrochloride] | 8.66 | 6.96 |
| COc1ccc(-c2cc(Nc3cnccn3)nc(N[C@@H](C)c3ccc(F)cc3)c2)cc1 [Example 119, (S)—N^2-[1-(4-Fluorophenyl)ethyl]-4-(4-methoxyphenyl)-N^6-(pyrazin-2-yl)pyridine-2,6-diamine hydrochloride] | 7.55 | 5.80 |
| CCC(=O)Nc1cc(Nc2cnccn2)nc(N[C@@H](C)c2ccc(F)cc2)c1 [Example 216, (S)—N-{2-[1-(4-Fluorophenyl)ethylamino]-6-(pyrazin-2-ylamino)pyridin-4-yl}propionamide] | 8.85 | 7.31 |
| CC(=O)N[C@H]1CCN(c2cc(Nc3cnccn3)nc(N[C@@H](C)c3ccc(F)cc3)c2)C1 [Example 38, N-{(S)-1-[2-{[(S)-1-(4-Fluorophenyl)ethyl]amino}-6-(pyrazin-2-ylamino)pyridin-4-yl]pyrrolidin-3-yl}acetamide hydrochloride] | 8.64 | 7.07 |
| C[C@H](Nc1nc(Nc2cnccn2)cc(-c2ccc(C(N)=O)nc2)n1)c1ccc(F)cc1 [Example 57, (S)-5-{2-[1-(4-Fluorophenyl)ethylamino]-6-(pyrazin-2-ylamino)pyrimidin-4-yl}picolinamide] | 8.89 | 7.09 |
| COc1ccc(-c2cc(Nc3cnccn3)nc(N[C@@H](C)c3ccc(F)cc3)n2)cn1 [Example 23, (S)—N^2-[1-(4-Fluorophenyl)ethyl]-6-(6-methoxypyridin-3-yl)-N^4-(pyrazin-2-yl)pyrimidine-2,4-diamine hydrochloride] | 8.38 | 6.68 |
| C[C@H](Nc1nc(Nc2cnccn2)cc(N2CC(=O)NC(=O)C2)n1)c1ccc(F)cc1 [Example 17, (S)-4-{2-[1-(4-Fluorophenyl)ethylamino]-6-(pyrazin-2-ylamino)pyrimidin-4-yl}piperazine-2,6-dione] | 8.36 | 6.47 |
| C[C@H](Nc1cc(N2CC(F)(F)C2)cc(Nc2cnccn2)n1)c1ccc(F)cc1 [Example 207, (S)-4-(3,3-Difluoroazetidin-1-yl)-N^2-[1-(4-fluorophenyl)ethyl]-N^6-(pyrazin-2-yl)pyridine-2,6-diamine hydrochloride] | 8.15 | 6.52 |
| C[C@H](Nc1nc(Nc2cnccn2)cc(N2CC(NC(N)=O)C2)n1)c1ccc(F)cc1 [Example 227, (S)-1-(1-{2-[1-(4-Fluorophenyl)ethylamino]-6-(pyrazin-2-ylamino)pyrimidin-4-yl}azetidin-3-yl)urea] | 8.96 | 7.70 |
| C[C@H](Nc1nc(Nc2cnccn2)cc(N2CC(F)(F)C2)n1)c1ccc(F)cc1 [Example 3, (S)-6-(3,3-Difluoroazetidin-1-yl)-N^2-[1-(4-fluorophenyl)ethyl]-N^4-(pyrazin-2-yl)pyrimidine-2,4-diamine hydrochloride] | 8.92 | 6.89 |
| C[C@H](Nc1nc(Nc2cnccn2)cc(N2CCN(S(C)(=O)=O)CC2)n1)c1ccc(Cl)cc1 [Example 100, (S)—N^2-[1-(4-Chlorophenyl)ethyl]-6-[4-(methylsulfonyl)piperazin-1-yl]-N^4-(pyrazin-2-yl)pyrimidine-2,4-diamine hydrochloride] | 9.28 | 7.33 |
| C[C@H](Nc1cc(N2CC(O)C2)cc(Nc2cnccn2)n1)c1ccc(F)cc1 [Example 202, (S)-1-{2-[1-(4-Fluorophenyl)ethylamino]-6-(pyrazin-2-ylamino)pyridin-4-yl}azetidin-3-ol hydrochloride] | 8.33 | 6.33 |
| C[C@H](Nc1nc(NCc2ccco2)cc(Nc2cnccn2)n1)c1ccc(F)cc1 [Example 103, (S)—N^2-[1-(4-Fluorophenyl)ethyl]-N^4-(furan-2-ylmethyl)-N^6-(pyrazin-2-yl)pyrimidine-2,4,6-triamine hydrochloride] | 8.39 | 6.51 |
| C[C@H](Nc1nc(Nc2cnccn2)cc(N2CCC(O)CC2)n1)c1ccc(F)cc1 [Example 71, (S)-1-{2-[1-(4-Fluorophenyl)ethylamino]-6-(pyrazin-2-ylamino)pyrimidin-4-yl}piperidin-4-ol hydrochloride] | 9.14 | 7.59 |
| COC1(C)CN(c2cc(Nc3cnccn3)nc(N[C@@H](C)c3ccc(F)cc3)c2)C1 [Example 213, (S)—N^2-[1-(4-Fluorophenyl)ethyl]-4-(3-methoxy-3-methylazetidin-1-yl)-N^6-(pyrazin-2-yl)pyridine-2,6-diamine hydrochloride] | 8.49 | 6.89 |
| CC(C)NC(=O)C1CN(c2cc(Nc3cnccn3)nc(N[C@@H](C)c3ccc(F)cc3)n2)C1 [Example 191, (S)-1-{2-[1-(4-Fluorophenyl)ethylamino]-6-(pyrazin-2-ylamino)pyrimidin-4-yl}-N-isopropylazetidine-3-carboxamide] | 8.85 | 7.51 |

From patent US8586591B2, “Aminopyrazine derivative and medicine” (Nippon Shinyaku Co., Ltd., priority 2009, dated 2013)
